Experimental data: PMC9122626 (2020)

Tested on: human telomeric G4 DNA, dAGGG(TTAGGG)3 (DNA, G4) AGGGTTAGGGTTAGGGTTAGGG
Assay: CD melting (295 nm)
Settings: Na+ 100 mM; peptide concentration not given

## N[C@@H](Cc1ccc(O)cc1)C(=O)N[C@@H](CCC(=O)N[C@@H](CCC(=O)O)C(=O)O)C(=O)N[C@@H](CCC(=O)O)C(=O)O (racemic)
  ΔTm: ~ 3 °C
